Test [1] concerns the target Nuclear receptor subfamily 5 group A member 2 (Homo sapiens, UniProt O00482). Format: functional, cell-based.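 Further: HEK293T cells transfected with LRH-1 and a StAR promoter luciferase reporter; potency for inhibitors that lower LRH-1 driven reporter light.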
A short description of test [2]: StAR promoter reporter inhibition counter-screen, dose response, counter-screen for LRH-1 inverse agonist project, cell-based, luminescence, luciferase reporter (AID 651969). The format is functional. Background: The purpose of a counterscreen is to sort out artefacts and off-target activity.
For another test, the target named is Steroidogenic factor 1 (Homo sapiens, UniProt Q13285). Kind of test: Counterscreen for inverse agonists of the liver receptor homolog-1 (LRH-1; NR5A2): Luminescence-based cell-based high throughput dose response assay to identify inverse agonists of the Steroidogenic Factor 1 Nuclear Receptor (SF1; NR5A1). The format is functional.
For test [3], the target named is T1, Low molecular weight phosphotyrosine protein phosphatase (Homo sapiens, UniProt P24666).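 Further: Dose-response confirmation assay measuring inhibition of LMPTP enzyme activity by fluorescence intensity read-out.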
T1 sequence (P24666 whole entry): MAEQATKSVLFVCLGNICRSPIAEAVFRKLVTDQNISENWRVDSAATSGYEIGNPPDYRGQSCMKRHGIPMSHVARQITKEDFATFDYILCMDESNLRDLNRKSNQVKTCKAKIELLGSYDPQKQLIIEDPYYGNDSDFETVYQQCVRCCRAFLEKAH
Format: functional. The note with it: read-out: IC50_Mean.

For test [4], the target named is T2, Apoptotic protease-activating factor 1 (Homo sapiens, UniProt O14727).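 Further: caspase-3 cleavage of fluorogenic Rh110 DEVD substrate downstream of apoptosome activation.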
T2 sequence (O14727 whole entry): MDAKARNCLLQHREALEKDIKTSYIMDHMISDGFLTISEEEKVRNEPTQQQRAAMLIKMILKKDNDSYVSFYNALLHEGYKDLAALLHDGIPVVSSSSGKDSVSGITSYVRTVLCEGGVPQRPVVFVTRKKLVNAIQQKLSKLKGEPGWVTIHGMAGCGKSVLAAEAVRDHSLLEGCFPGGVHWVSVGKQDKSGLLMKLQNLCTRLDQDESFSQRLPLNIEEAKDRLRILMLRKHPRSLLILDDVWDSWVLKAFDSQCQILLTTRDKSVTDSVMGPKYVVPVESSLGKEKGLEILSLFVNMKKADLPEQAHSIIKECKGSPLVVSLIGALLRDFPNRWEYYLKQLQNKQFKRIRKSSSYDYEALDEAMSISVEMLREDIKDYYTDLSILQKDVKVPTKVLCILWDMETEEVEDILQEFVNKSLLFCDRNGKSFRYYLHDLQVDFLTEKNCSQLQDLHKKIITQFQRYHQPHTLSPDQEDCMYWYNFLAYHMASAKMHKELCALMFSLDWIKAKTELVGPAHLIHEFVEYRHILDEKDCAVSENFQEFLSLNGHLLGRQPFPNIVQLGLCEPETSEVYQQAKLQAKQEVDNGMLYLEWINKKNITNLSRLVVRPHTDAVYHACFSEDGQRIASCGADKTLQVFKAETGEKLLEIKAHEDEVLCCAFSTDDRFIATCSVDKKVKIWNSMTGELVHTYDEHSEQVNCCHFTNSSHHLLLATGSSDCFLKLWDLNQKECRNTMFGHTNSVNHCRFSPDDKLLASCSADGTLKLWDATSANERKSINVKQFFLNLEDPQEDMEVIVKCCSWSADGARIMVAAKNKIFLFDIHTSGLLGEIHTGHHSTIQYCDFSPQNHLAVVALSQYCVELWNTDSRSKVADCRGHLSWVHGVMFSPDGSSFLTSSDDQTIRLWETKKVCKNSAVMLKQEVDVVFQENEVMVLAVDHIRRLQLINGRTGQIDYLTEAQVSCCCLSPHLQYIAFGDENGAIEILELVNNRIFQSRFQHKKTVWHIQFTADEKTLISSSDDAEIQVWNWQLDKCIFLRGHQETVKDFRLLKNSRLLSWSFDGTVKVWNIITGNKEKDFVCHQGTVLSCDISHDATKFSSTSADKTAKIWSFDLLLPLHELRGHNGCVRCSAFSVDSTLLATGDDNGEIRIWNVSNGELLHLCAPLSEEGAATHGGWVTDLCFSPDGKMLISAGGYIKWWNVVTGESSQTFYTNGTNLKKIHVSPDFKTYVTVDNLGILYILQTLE
The test can be described thus: SAR analysis of small molecule Activators of Apaf-1 in a Fluorescent assay. The format is functional. The note with it: read-out: EC50_Mean.

Test [5] has as its target T3, High affinity choline transporter 1 (Homo sapiens, UniProt Q9GZV3).
T3 sequence (Q9GZV3 whole entry): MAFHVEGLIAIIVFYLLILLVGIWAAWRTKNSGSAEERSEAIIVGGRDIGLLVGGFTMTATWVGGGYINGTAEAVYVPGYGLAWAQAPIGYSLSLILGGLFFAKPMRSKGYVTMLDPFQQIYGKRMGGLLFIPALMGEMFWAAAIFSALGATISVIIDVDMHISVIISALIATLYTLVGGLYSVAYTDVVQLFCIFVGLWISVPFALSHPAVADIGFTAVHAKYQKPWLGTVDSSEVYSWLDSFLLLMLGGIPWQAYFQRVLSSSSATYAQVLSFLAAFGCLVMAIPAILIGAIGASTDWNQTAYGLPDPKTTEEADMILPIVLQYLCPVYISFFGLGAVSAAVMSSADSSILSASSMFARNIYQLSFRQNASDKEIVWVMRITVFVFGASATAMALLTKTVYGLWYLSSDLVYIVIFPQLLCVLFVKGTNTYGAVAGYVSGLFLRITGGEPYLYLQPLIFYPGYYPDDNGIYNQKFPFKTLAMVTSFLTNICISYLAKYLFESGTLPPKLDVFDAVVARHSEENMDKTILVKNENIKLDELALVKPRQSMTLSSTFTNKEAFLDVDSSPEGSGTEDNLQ
Kind of test: inhibitors of CHT choline uptake, dose response, cell-based, 3H-choline uptake, CHT LV-AA trafficking mutant, CRC (AID 602208). Format: functional.

Test [6] addresses T3, High affinity choline transporter 1. The test can be described thus: CHT inhibitors, dose response, cell-based, 5-point CRC, membrane potential dye (AID 504840). Format: functional.
Test [7] has the same target. Kind of test: CHT inhibitors, dose response, cell-based, 10-point CRC, membrane potential dye (AID 588401).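 Further: membrane potential dye fluorescence of choline-evoked depolarization via CHT.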 Format: functional.
Test [8] concerns the target T4, ATP-dependent translocase ABCB1 (Homo sapiens, UniProt P08183). Kind of test: ABCB1 efflux inhibitor potency, dose response, Jurkat-DNR cells, JC-1, flow cytometry, set 2 (AID 504569).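 Further: potency of pump inhibitors that raise cellular JC-1 green fluorescence up to the nicardipine level.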 The note with it: read-out: EC50_MICROM_. The format is functional.
The target in test [9] is T4, ATP-dependent translocase ABCB1. Kind of test: ABCG2 efflux pump inhibitor potency, dose response, Ig-MXP3 cells, JC-1, flow cytometry, set 2 (AID 504566).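 Further: flow cytometry median green fluorescence of retained JC-1 dye; potency of efflux pump inhibition measured as rising substrate retention.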 Particulars: read-out: EC50_MICROM_. The format is functional. A general note: A flow cytometer gives signals particle by particle.
Test [10] can be described thus: HepG2 cell cytotoxicity, dose response, cytotoxicity control for Shn3 inhibitor project, CellTiter-Glo, cherry-picked (AID 624134). The format is functional, cell-based.
Test [11] can be described thus: Shn3 3'UTR reporter inhibitors, dose response, cell-based, Clone20 osteoblasts, firefly luciferase, cherry-picked (AID 624132).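 Further: firefly luciferase luminescence from reporter carrying the Shn3 3'UTR in osteoblasts.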 The format is functional.
The next test addresses Beta Lactamase (Pseudomonas aeruginosa, UniProt Q932Y6). The test can be described thus: beta-lactamase reporter inhibitor potency, dose response, artefact control for TLR9-MyD88 binding inhibitor project, BLA reporter cells, FRET fluorescence (AID 588341).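 Further: cell based assay in CHO-K1 cells stably expressing beta-lactamase.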 Format: cell-based.
Test [12] in a line: control 3'UTR Renilla luciferase suppression, dose response, counter-screen for Shn3 inhibitor project, cell-based, Clone20-Shn3RL, cherry-picked (AID 624133). Format: functional.
Another test concerns CHO. Kind of test: cytotoxicity in TLR9-MyD88 CHO cells, dose response, cytotoxicity control for TLR9-MyD88 binding inhibitor project, cell-based, luminescence (AID 588339).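 Further: CHO cells stably coexpressing TLR9 and MyD88 fusions from primary screen; compound exposure lasted 48 hours before viability readout.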 Format: functional, hamster. Particulars: Cricetulus griseus.
The target of test [13] is T5, DNA repair protein RAD52 homolog (Homo sapiens, UniProt P43351).
T5 sequence (P43351 whole entry): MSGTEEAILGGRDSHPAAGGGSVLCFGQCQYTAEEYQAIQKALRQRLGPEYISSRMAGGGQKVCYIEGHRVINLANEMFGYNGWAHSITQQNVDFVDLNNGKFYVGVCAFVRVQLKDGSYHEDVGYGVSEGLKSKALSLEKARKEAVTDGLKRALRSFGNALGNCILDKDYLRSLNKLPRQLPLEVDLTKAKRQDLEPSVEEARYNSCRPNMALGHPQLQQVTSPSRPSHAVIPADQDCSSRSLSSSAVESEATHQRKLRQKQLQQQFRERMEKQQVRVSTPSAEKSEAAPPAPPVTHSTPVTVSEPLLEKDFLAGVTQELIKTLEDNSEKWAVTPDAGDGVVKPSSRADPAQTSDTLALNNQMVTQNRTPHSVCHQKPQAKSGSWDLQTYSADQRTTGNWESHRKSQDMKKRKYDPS
Format: functional, biochemical.

In test [14] the target is DNA (cytosine-5)-methyltransferase 1 (Homo sapiens, UniProt P26358). The test can be described thus: DNMT1 methyltransferase inhibitors, confirmation, biochemical, fluorescent molecular beacon (AID 602386). Format: functional.
Test [15] deals with SWI/SNF-related matrix-associated actin-dependent regulator of chromatin subfamily A member 2 (Homo sapiens, UniProt P51531). The test can be described thus: Luminescence-based cell-based high throughput dose response assay to identify activators of the function of SWI/SNF related, matrix associated, actin dependent regulator of chromatin, subfamily a, member 2 (SMARCA2, BRM). Format: functional.

The nature of test [16]: DNA binding of candidate compounds, dose response, artefact control for RAD54 inhibitor project, biochemical, fluorescence polarization, cherry-pick (AID 651673). The format is functional. A general note: Polarisation of emitted light reports the rotation of a fluorescent probe.
Test [17] concerns the target T6, DNA repair and recombination protein RAD54-like (Homo sapiens, UniProt Q92698).
T6 sequence (Q92698 whole entry): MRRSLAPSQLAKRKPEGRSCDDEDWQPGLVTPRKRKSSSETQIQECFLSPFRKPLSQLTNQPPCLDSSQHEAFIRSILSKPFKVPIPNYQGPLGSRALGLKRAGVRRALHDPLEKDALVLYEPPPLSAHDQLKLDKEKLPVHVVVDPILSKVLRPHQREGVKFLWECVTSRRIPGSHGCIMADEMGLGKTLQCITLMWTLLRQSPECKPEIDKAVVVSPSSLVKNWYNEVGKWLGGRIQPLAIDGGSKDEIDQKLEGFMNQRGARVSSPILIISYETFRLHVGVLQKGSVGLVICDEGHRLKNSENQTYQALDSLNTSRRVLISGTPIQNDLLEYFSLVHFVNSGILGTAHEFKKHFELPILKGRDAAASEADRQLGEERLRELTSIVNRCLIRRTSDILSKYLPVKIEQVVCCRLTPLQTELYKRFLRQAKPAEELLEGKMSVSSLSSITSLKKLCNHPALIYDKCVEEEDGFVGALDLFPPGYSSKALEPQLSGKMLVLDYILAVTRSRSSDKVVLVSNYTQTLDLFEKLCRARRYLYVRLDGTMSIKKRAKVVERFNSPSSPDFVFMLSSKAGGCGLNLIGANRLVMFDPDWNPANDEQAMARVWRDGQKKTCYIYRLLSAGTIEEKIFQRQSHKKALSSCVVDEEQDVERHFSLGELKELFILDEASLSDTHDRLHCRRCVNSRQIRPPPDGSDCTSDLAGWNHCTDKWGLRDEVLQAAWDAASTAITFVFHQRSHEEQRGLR
Kind of test: inhibitors of human RAD54 branch migration, confirmation, biochemical, fluorescence, cherry-picked samples, dose series (AID 651657). The format is functional.

The nature of test [18]: MDA-MB-231 cell growth inhibition, dose response, cytotoxicity control for RAD54 inhibitor project, CellTiter-Glo luminescence, cherry-pick (AID 651692). The format is functional, cell-based.
A short description of test [19]: Counterscreen for activators of the function of SWI/SNF related, matrix associated, actin dependent regulator of chromatin, subfamily a, member 2 (SMARCA2, BRM): Luminescence-based cell-based high throughput dose response assay to identify non-selective compounds using the VP16 reporter assay. The format is functional.
In test [20] the target is ADP-ribosylation factor GTPase-activating protein 1 (Rattus norvegicus, UniProt Q62848). Kind of test: Fluorescence polarization-based biochemical high throughput dose response screening assay to identify inhibitors of ADP-ribosylation factor GTPase activating protein 1 (ARFGAP1). The format is functional.

Each structure is given as a SMILES string. Calls of active or inactive are those of the source.

T4 sequence (P08183 whole entry): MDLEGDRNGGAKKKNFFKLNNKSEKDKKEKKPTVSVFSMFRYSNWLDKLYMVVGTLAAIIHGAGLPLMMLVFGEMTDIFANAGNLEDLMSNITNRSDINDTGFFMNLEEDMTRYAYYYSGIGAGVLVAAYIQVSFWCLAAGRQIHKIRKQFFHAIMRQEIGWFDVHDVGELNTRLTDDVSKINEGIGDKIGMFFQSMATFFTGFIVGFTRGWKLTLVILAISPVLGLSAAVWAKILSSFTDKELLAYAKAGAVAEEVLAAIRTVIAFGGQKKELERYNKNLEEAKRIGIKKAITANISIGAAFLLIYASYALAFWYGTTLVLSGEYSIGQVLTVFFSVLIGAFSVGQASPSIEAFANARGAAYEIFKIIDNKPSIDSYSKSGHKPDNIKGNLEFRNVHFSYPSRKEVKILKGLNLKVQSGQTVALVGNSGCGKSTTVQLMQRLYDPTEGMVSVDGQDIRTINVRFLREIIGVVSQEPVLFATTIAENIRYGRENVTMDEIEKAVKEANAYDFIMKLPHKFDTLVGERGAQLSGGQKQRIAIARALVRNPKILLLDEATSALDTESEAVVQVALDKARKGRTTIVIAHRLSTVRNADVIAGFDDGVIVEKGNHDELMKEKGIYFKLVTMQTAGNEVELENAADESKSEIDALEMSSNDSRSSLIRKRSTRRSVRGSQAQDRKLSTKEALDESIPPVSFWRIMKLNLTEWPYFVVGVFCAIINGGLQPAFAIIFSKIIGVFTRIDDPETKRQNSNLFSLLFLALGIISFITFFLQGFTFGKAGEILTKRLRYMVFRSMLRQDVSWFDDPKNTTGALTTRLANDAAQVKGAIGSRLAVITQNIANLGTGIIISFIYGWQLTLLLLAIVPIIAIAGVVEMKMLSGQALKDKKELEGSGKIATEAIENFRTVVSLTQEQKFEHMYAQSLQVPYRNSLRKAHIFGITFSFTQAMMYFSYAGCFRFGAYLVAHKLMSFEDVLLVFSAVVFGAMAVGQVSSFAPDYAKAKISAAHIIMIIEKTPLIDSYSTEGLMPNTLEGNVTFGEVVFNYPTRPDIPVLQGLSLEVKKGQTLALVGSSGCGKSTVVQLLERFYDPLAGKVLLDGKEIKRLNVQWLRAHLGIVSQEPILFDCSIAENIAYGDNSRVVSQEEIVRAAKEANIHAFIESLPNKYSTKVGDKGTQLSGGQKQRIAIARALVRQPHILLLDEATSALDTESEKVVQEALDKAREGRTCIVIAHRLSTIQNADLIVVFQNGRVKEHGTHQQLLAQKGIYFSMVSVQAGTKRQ
Sequence of ADP-ribosylation factor GTPase-activating protein 1 (Q62848 whole entry): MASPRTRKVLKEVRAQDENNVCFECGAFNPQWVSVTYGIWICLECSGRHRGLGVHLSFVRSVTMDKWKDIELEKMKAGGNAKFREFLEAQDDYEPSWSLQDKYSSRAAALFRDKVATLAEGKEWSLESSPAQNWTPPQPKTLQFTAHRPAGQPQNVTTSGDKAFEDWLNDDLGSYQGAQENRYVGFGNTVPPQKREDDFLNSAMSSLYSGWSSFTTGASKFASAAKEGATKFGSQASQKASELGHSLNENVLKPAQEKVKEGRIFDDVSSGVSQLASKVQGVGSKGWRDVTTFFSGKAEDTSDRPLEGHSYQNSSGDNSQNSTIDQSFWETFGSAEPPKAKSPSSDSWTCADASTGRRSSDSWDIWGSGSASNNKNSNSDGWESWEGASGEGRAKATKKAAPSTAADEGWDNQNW
Sequence of Steroidogenic factor 1 (Q13285 whole entry): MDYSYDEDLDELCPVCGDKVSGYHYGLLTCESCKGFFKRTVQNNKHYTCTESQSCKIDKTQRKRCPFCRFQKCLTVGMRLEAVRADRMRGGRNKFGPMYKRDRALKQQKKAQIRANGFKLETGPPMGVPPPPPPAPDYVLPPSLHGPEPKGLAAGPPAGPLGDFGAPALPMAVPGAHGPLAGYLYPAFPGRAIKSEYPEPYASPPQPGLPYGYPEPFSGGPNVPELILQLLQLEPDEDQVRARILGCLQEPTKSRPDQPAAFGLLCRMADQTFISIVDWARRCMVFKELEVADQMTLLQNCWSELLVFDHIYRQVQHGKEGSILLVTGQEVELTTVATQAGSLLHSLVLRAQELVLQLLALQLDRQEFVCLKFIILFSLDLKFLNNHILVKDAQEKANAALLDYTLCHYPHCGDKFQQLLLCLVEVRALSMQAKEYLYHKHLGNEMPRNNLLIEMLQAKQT
Sequence of SWI/SNF-related matrix-associated actin-dependent regulator of chromatin subfamily A member 2 (P51531 whole entry): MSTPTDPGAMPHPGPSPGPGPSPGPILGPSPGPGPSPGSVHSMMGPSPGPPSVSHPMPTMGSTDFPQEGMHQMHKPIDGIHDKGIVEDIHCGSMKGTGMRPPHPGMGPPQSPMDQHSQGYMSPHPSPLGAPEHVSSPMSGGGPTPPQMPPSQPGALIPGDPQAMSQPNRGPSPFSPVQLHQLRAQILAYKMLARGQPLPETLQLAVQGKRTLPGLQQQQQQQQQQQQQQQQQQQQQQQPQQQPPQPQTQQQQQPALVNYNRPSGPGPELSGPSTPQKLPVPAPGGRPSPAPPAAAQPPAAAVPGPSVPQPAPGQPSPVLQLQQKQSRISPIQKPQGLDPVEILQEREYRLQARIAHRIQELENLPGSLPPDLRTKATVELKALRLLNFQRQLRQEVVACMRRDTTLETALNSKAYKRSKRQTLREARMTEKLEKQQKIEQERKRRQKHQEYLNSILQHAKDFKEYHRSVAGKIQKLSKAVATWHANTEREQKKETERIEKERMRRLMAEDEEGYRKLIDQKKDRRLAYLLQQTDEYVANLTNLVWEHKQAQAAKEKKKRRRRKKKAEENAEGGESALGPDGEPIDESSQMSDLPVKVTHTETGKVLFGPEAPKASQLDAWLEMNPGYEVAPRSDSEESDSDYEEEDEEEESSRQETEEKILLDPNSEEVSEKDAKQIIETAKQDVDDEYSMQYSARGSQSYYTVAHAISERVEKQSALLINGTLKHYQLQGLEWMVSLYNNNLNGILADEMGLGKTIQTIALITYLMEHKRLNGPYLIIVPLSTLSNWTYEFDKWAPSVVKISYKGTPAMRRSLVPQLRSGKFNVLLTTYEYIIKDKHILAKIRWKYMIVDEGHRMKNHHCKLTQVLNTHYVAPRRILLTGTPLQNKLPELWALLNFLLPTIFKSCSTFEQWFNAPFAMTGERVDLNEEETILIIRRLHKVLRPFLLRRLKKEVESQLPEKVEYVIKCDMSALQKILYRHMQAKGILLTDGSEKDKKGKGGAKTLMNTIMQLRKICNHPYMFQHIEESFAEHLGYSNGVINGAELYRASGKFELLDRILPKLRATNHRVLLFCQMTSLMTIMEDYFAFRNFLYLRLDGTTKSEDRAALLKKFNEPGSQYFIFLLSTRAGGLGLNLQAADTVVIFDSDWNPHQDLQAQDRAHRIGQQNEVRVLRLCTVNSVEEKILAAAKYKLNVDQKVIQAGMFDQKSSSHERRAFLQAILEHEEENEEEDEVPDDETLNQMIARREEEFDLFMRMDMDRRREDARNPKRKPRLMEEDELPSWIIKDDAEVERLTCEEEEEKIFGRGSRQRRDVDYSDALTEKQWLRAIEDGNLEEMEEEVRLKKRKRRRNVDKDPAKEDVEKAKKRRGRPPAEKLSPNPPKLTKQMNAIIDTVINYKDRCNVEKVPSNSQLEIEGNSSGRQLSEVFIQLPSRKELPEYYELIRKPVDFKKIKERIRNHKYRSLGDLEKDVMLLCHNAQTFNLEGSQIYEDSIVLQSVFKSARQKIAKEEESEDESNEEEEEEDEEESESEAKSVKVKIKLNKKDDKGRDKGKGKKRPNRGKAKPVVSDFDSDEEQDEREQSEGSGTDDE
Sequence of Nuclear receptor subfamily 5 group A member 2 (O00482 whole entry): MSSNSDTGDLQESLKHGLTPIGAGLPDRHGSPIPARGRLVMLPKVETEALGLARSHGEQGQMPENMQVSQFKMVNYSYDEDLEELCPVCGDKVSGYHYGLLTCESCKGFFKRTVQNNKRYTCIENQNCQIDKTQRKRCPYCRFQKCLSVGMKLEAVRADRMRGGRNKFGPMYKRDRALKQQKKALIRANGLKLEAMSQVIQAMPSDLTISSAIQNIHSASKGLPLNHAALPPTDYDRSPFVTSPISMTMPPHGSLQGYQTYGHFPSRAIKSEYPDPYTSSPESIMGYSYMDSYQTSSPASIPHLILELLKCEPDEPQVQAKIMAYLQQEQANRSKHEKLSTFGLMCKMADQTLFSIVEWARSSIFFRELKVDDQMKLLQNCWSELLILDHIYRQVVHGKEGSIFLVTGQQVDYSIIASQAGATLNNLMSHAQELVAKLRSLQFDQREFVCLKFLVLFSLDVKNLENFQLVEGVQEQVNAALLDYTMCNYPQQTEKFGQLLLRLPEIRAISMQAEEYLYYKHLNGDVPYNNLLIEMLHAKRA
Sequence of Beta Lactamase (Q932Y6 whole entry): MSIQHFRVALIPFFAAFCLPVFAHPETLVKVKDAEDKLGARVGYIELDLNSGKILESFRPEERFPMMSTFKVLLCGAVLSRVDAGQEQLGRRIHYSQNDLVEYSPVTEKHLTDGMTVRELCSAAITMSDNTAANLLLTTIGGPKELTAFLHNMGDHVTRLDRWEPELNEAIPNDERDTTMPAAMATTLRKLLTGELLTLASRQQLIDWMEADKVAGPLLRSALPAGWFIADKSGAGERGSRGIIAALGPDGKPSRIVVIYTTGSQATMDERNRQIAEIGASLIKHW

As to `CCCc1cc(=O)oc2c(C)c(OCC(=O)NCCCn3ccnc3)ccc12`, the IC50 in test [1] was 35.9 µM (inactive); in [2] it was 35.9 µM (inactive); on Steroidogenic factor 1, 10.8 µM (inactive).
For the molecule `C/C(=N\NS(=O)(=O)c1ccc(Cl)c([N+](=O)[O-])c1)c1ccc(C)o1`, the IC50 in test [3] was 80 µM (inactive).
For `CCC(=O)N1CCc2cc(Br)c(S(=O)(=O)CCC(=O)Nc3cc(Cl)ccc3OC)cc21`, the EC50 in test [4] was > 100 µM (inactive).
With `O=C(Nc1ccc(S(=O)(=O)Nc2cnc3ccccc3n2)cc1)c1ccc(Cl)cc1Cl`, the figures for the IC50 in test [5], in [6] and in test [7] were 2.82 µM (active), 9.55 µM (active) and 3.25 µM (active), respectively.
For the molecule `COc1cccc(C(=O)N2CCN(c3cc(-c4ccccc4)nc4cc(-c5cccc(Cl)c5)nn34)CC2)c1`, the EC50 is 2.22 µM (active) in [8] and 2.6 µM (active) in test [9].
On to `O=c1oc2ccccc2c(Cl)c1CN1CCCCC1`, for which the AC50 in test [10] was > 70 µM (inactive); in [11], 4.99 µM (active); in test [12], 7.15 µM (active). The IC50 is 6.02 µM (active) on Beta Lactamase, 10 µM (active) in test [6], 1.22 µM (active) in the test with CHO and 6.69 µM (active) in [7].
Turning to `COc1ccc2nc(C)cc(Nc3ccc(N4CCN(C)CC4)cc3)c2c1`, the half-maximal activity concentration (AC50) is 1.27 µM (active) in test [13], 62 µM (active) in test [16], 2.45 µM (active) in test [17] and 52 µM (inactive) in test [18]. The IC50 in test [14] was 11.4 µM (active). Further, the EC50 was > 3.38 µM (active) in [15] and > 10.1 µM (inactive) in [19].
With `CCCOc1ccc(/C=N/NC(=O)c2ccc(Cn3cc([N+](=O)[O-])cn3)o2)cc1`, in test [20], the IC50 is 49 µM (inactive).

The term AC50 denotes the concentration giving half of the maximal activity seen.

For the origin of these results see ChEMBL document CHEMBL1201862, “PubChem BioAssay data set” (2004).
